Reference: patent US20230322789A1, “PYRAZOLOPYRIDAZINONE COMPOUND, AND PHARMACEUTICAL COMPOSITION AND USE THEREOF” (BroadenBio Co., Ltd., priority 2020, published 2023)
Structures can show the parent of a compound that is named as a salt.

target: HPK1 (Homo sapiens (Human), UniProt Q92918); test: HPK1 kinase activity inhibition test (ADP-Glo, luminescence); assay type: biochemical; details: HPK1 5 nM, ATP 2 μM, read-out: IC50, inhibitory effects of compounds on HPK1 kinase activity
Experimental: 1. HPK1 Kinase Activity Inhibition Test
The kinase activity of HPK1 is manifested as activity of autophosphorylation and phosphorylation of downstream substrates. In the process of autophosphorylation, additional substrates are not required, and ATP is consumed to generate ADP. The amount of the product was measured by ADP-Glo reagent and luminescence method to reflect kinase activity.
Test compounds: compounds prepared in the examples of this application.
Prepare compound stock solution: dissolve the compound to be tested in 100% DMSO to make a 10 mM stock solution;
Prepare 4× Kinase Reaction Buffer:
Prepare 2×HPK1 Kinase Solution:
Dilute the stock solution of the compound to be tested by 5 times with […], make a 4-fold equal dilution in a 96-well dilution plate, add 1 μL of the compound to 49 µL of kinase reaction buffer, and shake on a microplate shaker for 20 minutes. Transfer 2 μL of […] kinase solution to 384 reaction plate, add 1 μL of the test compound to the 384 reaction plate (Greiner, 784075), centrifuge for 1 minute (1000 rpm/min), incubate at 25° C. for 10 minutes. Transfer […] of the 4×ATP mixture to a 384 reaction plate, centrifuge for 1 minute (1000 rpm/mm), and incubate at 25° C. for 60 minutes. In the reaction system, the final concentration of DMSO was […]. Transfer 4 μL of ADP-Glo to a 384 reaction plate, centrifuge for 1 minute (1000 rpm/min), and incubate at 25° C. for 40 minutes. Transfer 8 μL detection solution to a 384 reaction plate, centrifuge for 1 minute (1000 rpm/min), and incubate at 25° C. for 40 minutes. The […] signal was read using a Biotek multi-function plate reader, and the […] (half inhibitory concentration) of the compound was obtained using a four-coefficient nonlinear fitting formula.

HPK1, sequence (Q92918 whole entry): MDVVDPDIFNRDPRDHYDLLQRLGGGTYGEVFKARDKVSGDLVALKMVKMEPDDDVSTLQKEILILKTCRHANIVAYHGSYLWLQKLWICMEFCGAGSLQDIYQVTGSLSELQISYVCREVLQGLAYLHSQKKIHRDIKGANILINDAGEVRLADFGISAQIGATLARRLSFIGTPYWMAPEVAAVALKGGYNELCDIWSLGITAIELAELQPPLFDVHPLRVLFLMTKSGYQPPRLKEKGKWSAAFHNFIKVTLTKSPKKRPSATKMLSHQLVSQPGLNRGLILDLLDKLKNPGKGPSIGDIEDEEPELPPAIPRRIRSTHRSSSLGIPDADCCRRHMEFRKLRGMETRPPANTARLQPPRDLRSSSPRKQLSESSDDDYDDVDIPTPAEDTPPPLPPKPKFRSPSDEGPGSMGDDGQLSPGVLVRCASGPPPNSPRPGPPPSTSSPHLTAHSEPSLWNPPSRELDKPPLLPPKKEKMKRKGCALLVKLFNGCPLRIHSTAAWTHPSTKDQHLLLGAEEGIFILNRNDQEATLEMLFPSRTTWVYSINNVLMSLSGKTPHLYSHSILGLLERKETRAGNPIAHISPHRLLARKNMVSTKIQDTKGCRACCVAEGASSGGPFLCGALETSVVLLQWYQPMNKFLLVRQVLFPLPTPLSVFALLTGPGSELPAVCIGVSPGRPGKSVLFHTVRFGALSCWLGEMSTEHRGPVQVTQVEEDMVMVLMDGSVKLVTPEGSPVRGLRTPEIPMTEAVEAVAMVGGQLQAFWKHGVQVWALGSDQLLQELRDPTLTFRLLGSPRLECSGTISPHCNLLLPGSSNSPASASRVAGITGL

SMILES | IC50
COc1ccncc1-n1nc2c(-c3ccc(-c4cnn(C)c4)cc3)n[nH]c2cc1=O [Compound 152, 5-(4-methoxypyrid-3-yl)-3-(4-(1-methyl-1H-pyrazol-4-yl)phenyl)-1H-pyrazolo[4,3-c]pyridazin-6(5H)-one] | 50 to 500 nM
COc1cnccc1-n1nc2c(-c3ccc(N4CCN(C)CC4)cc3)n[nH]c2cc1=O [Compound 153, 5-(3-methoxypyrid-4-yl)-3-(4-(4-methylpiperazin-1-yl)phenyl)-1H-pyrazolo[4,3-c]pyridazin-6(5H)-one] | 50 to 500 nM
COc1cc(F)cc(F)c1-n1nc2c(-c3ccc4c(c3)CN(C)CC4)n[nH]c2cc1=O [Compound 158, 5-(2,4-difluoro-6-methoxyphenyl)-3-(2-methyl-1,2,3,4-tetrahydroisoquinolin-7-yl)-1H-pyrazolo[4,3-c]pyridazin-6(5H)-one] | 50 to 500 nM
COc1cccc(F)c1-n1nc2c(-c3ccc4c(c3)CN(CC(F)F)CC4)n[nH]c2cc1=O [Compound 166, 3-(2-(2,2-difluoroethyl)-1,2,3,4-tetrahydroisoquinolin-7-yl)-5-(2-fluoro-6-methoxyphenyl)-1H-pyrazolo[4,3-c]pyridazin-6(5H)-one] | 50 to 500 nM
Cc1cccc(F)c1-n1nc2c(-c3ccc4c(c3)CN(C3CCOCC3)CC4)n[nH]c2cc1=O [Compound 167, 5-(2-fluoro-6-methylphenyl)-3-(2-(tetrahydro-2H-pyran-4-yl)-1,2,3,4-tetrahydroisoquinolin-7-yl)-1H-pyrazolo[4,3-c]pyridazin-6(5H)-one] | 50 to 500 nM
Cc1cccc(F)c1-n1nc2c(-c3ccc4c(c3)CN(C3CCN(C)CC3)CC4)n[nH]c2cc1=O [Compound 168, 5-(2-fluoro-6-methylphenyl)-3-(2-(1-methylpiperidin-4-yl)-1,2,3,4-tetrahydroisoquinolin-7-yl)-1H-pyrazolo[4,3-c]pyridazin-6(5H)-one] | 50 to 500 nM
Cc1cccc(F)c1-n1nc2c(-c3ccc4c(c3)CN(C(=O)CN3CCOCC3)CC4)n[nH]c2cc1=O [Compound 169, 5-(2-fluoro-6-methylphenyl)-3-(2-(2-morpholinoacetyl)-1,2,3,4-tetrahydroisoquinolin-7-yl)-1H-pyrazolo[4,3-c]pyridazin-6(5H)-one] | 50 to 500 nM
Cc1cc(C#N)cc(F)c1-n1nc2c(-c3ccc4c(c3)CN(C(=O)CO)CC4)n[nH]c2cc1=O [Compound 172, 3-fluoro-4-(3-(2-(2-hydroxylacetyl)-1,2,3,4-tetrahydroisoquinolin-7-yl)-6-oxo-1H-pyrazolo[4,3-c]pyridazin-5(6H)-yl)-5-methylbenzonitrile] | 50 to 500 nM
Cc1cc(C#N)cc(F)c1-n1nc2c(-c3ccc4c(c3)CN(C(=O)C(C)O)CC4)n[nH]c2cc1=O (stereo not shown) [Compound 173, 3-fluoro-4-(3-(2-(2-hydroxylpropionyl)-1,2,3,4-tetrahydroisoquinolin-7-yl)-6-oxo-1H-pyrazolo[4,3-c]pyridazin-5(6H)-yl)-5-methylbenzonitrile] | 50 to 500 nM
Cc1cccc(F)c1-n1nc2c(-c3ccc4c(c3)CN(C)[C@H](CO)C4)n[nH]c2cc1=O [Compound 176, (S)-5-(2-fluoro-6-methylphenyl)-3-(3-(hydroxymethyl)-2-methyl-1,2,3,4-tetrahydroisoquinolin-7-yl)-1H-pyrazolo[4,3-c]pyridazin-6(5H)-one] | ≤ 50 nM
Cc1cccc(F)c1-n1nc2c(-c3ccc4c(c3)CN(C)C(C)(C)C4)n[nH]c2cc1=O [Compound 178, 5-(2-fluoro-6-methylphenyl)-3-(2,3,3-trimethyl-1,2,3,4-tetrahydroisoquinolin-7-yl)-1H-pyrazolo[4,3-c]pyridazin-6(5H)-one] | 50 to 500 nM
Cc1cccc(F)c1-n1nc2c(-c3ccc4c(c3)CN(C)[C@@H](CO)C4)n[nH]c2cc1=O [Compound 179, (R)-5-(2-fluoro-6-methylphenyl)-3-(3-(hydroxymethyl)-2-methyl-1,2,3,4-tetrahydroisoquinolin-7-yl)-1H-pyrazolo[4,3-c]pyridazin-6(5H)-one] | 50 to 500 nM
COC[C@@H]1Cc2ccc(-c3n[nH]c4cc(=O)n(-c5c(C)cccc5F)nc34)cc2CN1C [Compound 180, (S)-5-(2-fluoro-6-methylphenyl)-3-(3-(methoxymethyl)-2-methyl-1,2,3,4-tetrahydroisoquinolin-7-yl)-1H-pyrazolo[4,3-c]pyridazin-6(5H)-one] | ≤ 50 nM
Cc1cccc(F)c1-n1nc2c(-c3ccc4c(c3)CN3CCOC[C@@H]3C4)n[nH]c2cc1=O [Compound 181, (S)-5-(2-fluoro-6-methylphenyl)-3-(1,3,4,6,11,11a-hexahydro-[1,4]oxazino[4,3-b]isoquinolin-8-yl)-1H-pyrazolo[4,3-c]pyridazin-6(5H)-one] | 50 to 500 nM
Cc1cccc(F)c1-n1nc2c(-c3ccc4c(c3)CN(C)C(=O)C4)n[nH]c2cc1=O [Compound 182, 7-(5-(2-fluoro-6-methylphenyl)-6-oxo-5,6-dihydro-1H-pyrazolo[4,3-c]pyridazin-3-yl)-2-methyl-1,2-dihydroisoquinolin-3(4H)-one] | 50 to 500 nM
Cc1cccc(F)c1-n1nc2c(-c3ccc4c(c3)C(=O)N(C)CC4)n[nH]c2cc1=O [Compound 183] | 500 to 2000 nM
Cc1cccc(F)c1-n1nc2c(-c3ccc4c(c3)C(CO)N(C)CC4)n[nH]c2cc1=O (stereo not shown) [Compound 184, 5-(2-fluoro-6-methylphenyl)-3-(1-(hydroxymethyl)-2-methyl-1,2,3,4-tetrahydroisoquinolin-7-yl)-1H-pyrazolo[4,3-c]pyridazin-6(5H)-one] | 50 to 500 nM
Cc1cccc(F)c1-n1nc2c(-c3ccc4c(c3)C3COC(=O)N3CC4)n[nH]c2cc1=O (stereo not shown) [Compound 185, 9-(5-(2-fluoro-6-methylphenyl)-6-oxo-5,6-dihydro-1H-pyrazolo[4,3-c]pyridazin-3-yl)-5,6-dihydro-1H-oxazolo[4,3-a]isoquinolin-3(10bH)-one] | 500 to 2000 nM
Cc1cccc(F)c1-n1nc2c(-c3ccc4c(c3)C(CN)N(C)CC4)n[nH]c2cc1=O (stereo not shown) [Compound 186, 3-(1-(aminomethyl)-2-methyl-1,2,3,4-tetrahydroisoquinolin-7-yl)-5-(2-fluoro-6-methylphenyl)-1H-pyrazolo[4,3-c]pyridazin-6(5H)-one hydrochloride] | 500 to 2000 nM
Cc1cccc(F)c1-n1nc2c(-c3cnc4c(c3)CN(C)CC4)n[nH]c2cc1=O [Compound 187, 5-(2-fluoro-6-methylphenyl)-3-(6-methyl-5,6,7,8-tetrahydro-1,6-naphthyridin-3-yl)-1H-pyrazolo[4,3-c]pyridazin-6(5H)-one] | 50 to 500 nM
Cc1cccc(F)c1-n1nc2c(-c3ccc4c(c3F)CN(C)CC4)n[nH]c2cc1=O [Compound 188, 3-(8-fluoro-2-methyl-1,2,3,4-tetrahydroisoquinolin-7-yl)-5-(2-fluoro-6-methylphenyl)-1H-pyrazolo[4,3-c]pyridazin-6(5H)-one] | 50 to 500 nM
Cc1cccc(F)c1-n1nc2c(-c3cc4c(cc3F)CCN(C)C4)n[nH]c2cc1=O [Compound 189, 3-(6-fluoro-2-methyl-1,2,3,4-tetrahydroisoquinolin-7-yl)-5-(2-fluoro-6-methylphenyl)-1H-pyrazolo[4,3-c]pyridazin-6(5H)-one] | 50 to 500 nM
COc1cccc(F)c1-n1nc2c(-c3ccc4c(c3F)CN(C)CC4)n[nH]c2cc1=O [Compound 190, 3-(8-fluoro-2-methyl-1,2,3,4-tetrahydroisoquinolin-7-yl)-5-(2-fluoro-6-methoxyphenyl)-1H-pyrazolo[4,3-c]pyridazin-6(5H)-one] | 50 to 500 nM
COc1cccc(F)c1-n1nc2c(-c3cc4c(cc3F)CCN(C)C4)n[nH]c2cc1=O [Compound 191, 3-(6-fluoro-2-methyl-1,2,3,4-tetrahydroisoquinolin-7-yl)-5-(2-fluoro-6-methoxyphenyl)-1H-pyrazolo[4,3-c]pyridazin-6(5H)-one] | 50 to 500 nM
Cc1cccc(F)c1-n1nc2c(-c3ccc4c(c3)CCN(C3CN(C)C3)C4)n[nH]c2cc1=O [Compound 194, 5-(2-fluoro-6-methylphenyl)-3-(2-(1-methylazetidin-3-yl)-1,2,3,4-tetrahydroisoquinolin-6-yl)-1H-pyrazolo[4,3-c]pyridazin-6(5H)-one] | ≤ 50 nM
Cc1cccc(F)c1-n1nc2c(-c3ccc4c(c3)CCN(C3CCOCC3)C4)n[nH]c2cc1=O [Compound 195, 5-(2-fluoro-6-methylphenyl)-3-(2-(tetrahydro-2H-pyran-4-yl)-1,2,3,4-tetrahydroisoquinolin-6-yl)-1H-pyrazolo[4,3-c]pyridazin-6(5H)-one] | 50 to 500 nM
Cc1cccc(F)c1-n1nc2c(-c3ccc4c(c3)CCN(C3CCN(C)CC3)C4)n[nH]c2cc1=O [Compound 196, 5-(2-fluoro-6-methylphenyl)-3-(2-(1-methylpiperidin-4-yl)-1,2,3,4-tetrahydroisoquinolin-6-yl)-1H-pyrazolo[4,3-c]pyridazin-6(5H)-one hydrochloride] | 50 to 500 nM
Cc1cccc(F)c1-n1nc2c(-c3ccc4c(c3)CN(C)C4)n[nH]c2cc1=O [Compound 197, 5-(2-fluoro-6-methylphenyl)-3-(2-methylisoindolin-5-yl)-1H-pyrazolo[4,3-c]pyridazin-6(5H)-one] | ≤ 50 nM
